Here are results for 4 compounds from PMC8340127 (iScience, 2021).

Read-outs that look alike come from different tables or passages of the source. Residues, ends and D or L forms follow the SMILES beside them.

One series deals with neuroblastoma cells. The note with it: cited from earlier work.
Series [1] has as its target T1, 15N-Aβ40 (Homo sapiens, UniProt P05067).
T1 construct: Uniformly isotopically ^15N -labelled Amyloid-β1-40 (Aβ40); purchased AlexoTech AB, Umeå, Sweden AB-100-05
As to the kind of experiment: biochemical. Format: binding.

Series [2] deals with T2, Aβ40 (Homo sapiens, UniProt P05067).
T2 construct: Recombinant Amyloid-β1-40 (Aβ40) wild type peptide; purchased AlexoTech AB, Umeå, Sweden AB-100-10
T2 sequence (P05067 672-711): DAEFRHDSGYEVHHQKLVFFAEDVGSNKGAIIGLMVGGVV
Format: biochemical.

Series [3] has as its target T2, Aβ40. Format: biochemical. This is another data set of the same source.
The target of series [4] is T1, 15N-Aβ40. Format: biochemical. The note with it: pH 7.35.
For series [5] the following is noted: pH 7.4.
Series [6] is classed as biochemical. The note with it: pH 7.4.
The target of series [7] is T3, Aβ42 (Homo sapiens, UniProt P05067).
T3 construct: Recombinant Amyloid-β1-42 (Aβ42) wild type peptide; purchased rPeptide, Watkinsville, USA A-1163-2
T3 sequence (P05067 672-713): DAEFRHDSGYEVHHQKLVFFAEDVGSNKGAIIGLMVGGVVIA
Format: biochemical. The settings on record: pH 8.

Series [8] addresses T3, Aβ42. Format: biochemical. The note with it: pH 7.3.
Series [9] is classed as biochemical. The note with it: pH 7.4. The source holds these as a separate data set.
Series [10] addresses T3, Aβ42. Format: biochemical. The settings on record: pH 7.8.
The target in series [11] is T3, Aβ42. Format: binding. The note with it: pH 8.3.
Series [12] has as its target T3, Aβ42. Format: biochemical.
Series [13] concerns the target T3, Aβ42. Format: binding.

T1 sequence (P05067 672-711): as the sequence (P05067 672-711) above

`CC[C@H](C)[C@H](NC(=O)[C@H](CC(C)C)NC(=O)[C@H](CC(=O)O)NC(=O)[C@H](CCCCN)NC(=O)[C@@H](NC(=O)[C@H](CCCNC(=N)N)NC(=O)[C@H](CC(C)C)NC(=O)[C@@H](N)CCSC)[C@@H](C)O)C(=O)N[C@@H](Cc1c[nH]c2ccccc12)C(=O)N[C@H](C(=O)N[C@@H](CC(C)C)C(=O)N[C@@H](Cc1ccccc1)C(=O)N[C@@H](Cc1ccccc1)C(=O)N[C@@H](CC(C)C)C(=O)NCC(=O)N[C@H](C(=O)N[C@@H](C)C(=O)N[C@H](C(=O)N[C@@H](CO)C(=O)N[C@@H](CCCCN)C(=O)N[C@@H](CCCCN)C(=O)N[C@@H](CCCNC(=N)N)C(=O)N1CCC[C@H]1C(=O)N[C@@H](CCCCN)C(=O)N1CCC[C@H]1C(N)=O)C(C)C)[C@@H](C)O)[C@@H](C)O` [NCAM-PrP] (H-MLRTKDLIWTLFFLGTAVSKKRPKP-NH2): in the series on neuroblastoma cells, the “effect on Aβ-induced cytotoxicity in cells” value is “attenuates Aβ-induced cytotoxicity in cells” and the toxicity result is reported as “not toxic at the concentrations studied”. Further, the Kd (as a rule, the free concentration of one partner at which half of the binding sites on the other are occupied at equilibrium, for simple one-to-one binding) on 15N-Aβ40 [1] is roughly 160 µM.
Turning to “Aβ40: Recombinant Amyloid-β1-40 (Aβ40) wild type peptide”, in the series with Aβ40 [2], the “secondary structure by FTIR” value was “both random coil and β-sheet conformations”. Moreover, in the series with Aβ40 [3], the “aggregation half-time τ½, Aβ40 alone + NaF” value is listed as 2 h. Further, the “aggregation half-time τ½, Aβ40 alone” value with Aβ40 [3] (pH 7.3) is recorded as “approximately 6 h”.
Consider “Aβ: Amyloid-β (Aβ) peptide, 40 or 42 residues long; in b38 15N-Aβ40”, for which, in the series with 15N-Aβ40 [4], the “aggregation of Aβ40 alone (HSQC signal intensity)” value was “started to aggregate during the incubation”. Further, in series [5], the “secondary structure in SDS micelles” value was “α-helical secondary structures”.
Consider “DAEFR5HDSGY10EVHHQ15KLVFF20AEDVG25SNKGA30IIGLM35VGGVV40IA [Aβ42, Recombinant Amyloid-β1-42 (Aβ42) wild type peptide]”, for which the “calcein leakage by monomeric Aβ42” value in series [6] is listed as “around 10%”. On Aβ42 [7], the “aggregation half-time τ½, Aβ42 alone” value was “about 4 h” and the “aggregation half-time τ½, Aβ42 alone + NaF” value is on record as “approximately 2.5 h”. For the same compound, at Aβ42 [8], the “time at which normalized CD signals at 198 and 220 nm meet, Aβ42 alone” value was “approximately one”; the “β-sheet formation of Aβ42 alone” value is “transitioned into a mostly β-sheet state within 4 h”. For the same compound, the “calcein leakage by monomeric Aβ42” value in series [9] is reported as “around 10%”. For the same compound, the “effect of 10% pre-formed seeds on Aβ42 amyloid formation, no NCAM-PrP” value at Aβ42 [10] is “the amyloid formation was enhanced”. Besides, the “oligomeric state of Aβ42, aqueous” value on Aβ42 [11] was “mostly monomeric peptide with a rich population of small and heterogeneous oligomers”. Further, the “fibril diameter by AFM, Aβ42 alone” value on Aβ42 [12] is “approximately 10 nm”. In addition, at Aβ42 [13], the “share of tetramer in the Aβ42 oligomeric population” value is “about 50%”.
